Data: article PMC5812785 (Nature chemical biology, 2018)

What was measured:
ccvTIR1 (TIR1^F79G) = ccvTIR1 (TIR1^F79G) (Arabidopsis thaliana, UniProt Q38825+Q570C0, Q570C0:F79G); type: binding
TIR1 = TIR1 (Arabidopsis thaliana, UniProt Q38825+Q570C0); type: binding
TIR1, sequence (Q570C0 whole entry, other chains not shown): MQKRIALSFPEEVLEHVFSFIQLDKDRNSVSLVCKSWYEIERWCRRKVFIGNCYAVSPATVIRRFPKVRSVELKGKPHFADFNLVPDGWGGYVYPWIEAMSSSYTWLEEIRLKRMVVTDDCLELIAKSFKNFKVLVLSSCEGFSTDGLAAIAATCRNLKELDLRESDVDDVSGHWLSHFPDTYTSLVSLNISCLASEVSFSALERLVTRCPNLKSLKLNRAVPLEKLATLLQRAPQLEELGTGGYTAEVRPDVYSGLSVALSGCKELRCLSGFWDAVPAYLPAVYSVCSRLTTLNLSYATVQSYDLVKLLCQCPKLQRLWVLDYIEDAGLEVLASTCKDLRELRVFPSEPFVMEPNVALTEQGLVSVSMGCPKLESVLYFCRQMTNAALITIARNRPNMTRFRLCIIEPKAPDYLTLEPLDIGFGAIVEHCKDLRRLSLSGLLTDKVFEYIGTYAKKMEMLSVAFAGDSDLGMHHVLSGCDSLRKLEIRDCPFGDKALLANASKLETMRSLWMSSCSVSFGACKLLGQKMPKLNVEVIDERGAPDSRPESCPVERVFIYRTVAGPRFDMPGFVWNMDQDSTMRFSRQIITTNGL

ccvTIR1 (TIR1^F79G), sequence (Q570C0 whole entry F79G, other chains not shown): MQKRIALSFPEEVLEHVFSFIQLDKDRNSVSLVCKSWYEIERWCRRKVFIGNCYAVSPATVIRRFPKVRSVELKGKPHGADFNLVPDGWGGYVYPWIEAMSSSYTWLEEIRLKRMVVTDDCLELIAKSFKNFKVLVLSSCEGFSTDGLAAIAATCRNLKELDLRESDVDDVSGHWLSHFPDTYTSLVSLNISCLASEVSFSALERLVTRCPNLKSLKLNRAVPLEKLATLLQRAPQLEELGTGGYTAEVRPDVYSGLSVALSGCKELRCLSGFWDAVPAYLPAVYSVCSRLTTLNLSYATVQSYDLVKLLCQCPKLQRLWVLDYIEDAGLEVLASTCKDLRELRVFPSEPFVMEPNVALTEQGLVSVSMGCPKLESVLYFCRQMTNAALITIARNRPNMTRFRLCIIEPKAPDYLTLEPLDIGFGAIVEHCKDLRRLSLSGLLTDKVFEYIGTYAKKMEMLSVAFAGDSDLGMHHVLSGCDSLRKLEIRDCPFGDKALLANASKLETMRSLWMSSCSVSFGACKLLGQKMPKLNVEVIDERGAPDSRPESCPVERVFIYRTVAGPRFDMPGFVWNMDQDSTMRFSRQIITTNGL

EC50 (TIR1) [µM]	SMILES	EC50 (ccvTIR1 (TIR1^F79G)) [µM]
	COc1cccc(-c2ccc3[nH]cc(CC(=O)O)c3c2)c1 [compound 1, 5-(3-methoxyphenyl)indole-3-acetic acid]	3.98 ± 0.6
11.5 ± 1.23	O=C(O)Cc1c[nH]c2ccccc12 [IAA, indole-3-acetic acid]	
